Experimental data published in patent US5441875A, “Urea transporter polypeptide” (Brigham and Women's Hospital, priority 1993, dated 1995).
Read-outs that look alike come from different tables or passages of the source.

Legend:
[1] = molecular target: T1, urea transporter polypeptide (Oryctolagus cuniculus, UniProt Q28614); assay: cell-based; settings: for inhibition of urea transport by urea analogues: 150 mM analogue; for effect of cAMP analogues on urea transporter-facilitated urea transport: 30 minute preincubation, 1 mM per analogue; for effect on urea uptake of replacing mannitol in the incubation solution: 100 mM replacing mannitol
T1 sequence (Q28614 1-397): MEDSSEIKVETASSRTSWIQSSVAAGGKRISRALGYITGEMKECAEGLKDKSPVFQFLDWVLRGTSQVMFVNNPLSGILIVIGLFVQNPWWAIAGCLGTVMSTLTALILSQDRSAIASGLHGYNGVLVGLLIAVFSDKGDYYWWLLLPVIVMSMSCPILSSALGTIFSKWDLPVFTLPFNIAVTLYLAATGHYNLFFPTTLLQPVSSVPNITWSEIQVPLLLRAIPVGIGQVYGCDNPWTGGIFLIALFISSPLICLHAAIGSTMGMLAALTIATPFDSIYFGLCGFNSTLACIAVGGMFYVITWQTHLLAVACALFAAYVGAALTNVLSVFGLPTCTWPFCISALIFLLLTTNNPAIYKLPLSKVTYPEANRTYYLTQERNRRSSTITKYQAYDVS
Protocol: (§1) The rabbit kidney medulla mRNA that is size fractionated by the preparative agarose gel electrophoresis was analyzed by oocyte expression assay. Large, fully grown oocytes (stage 5 and 6) with a diameter of 1.2-1.3 mm were hand dissected from ovarian fragments of Xenopus laevis, treated with 2 mg/ml type 1A collagenase to remove follicular cells and incubated in Barth's solution (in mM: 88 NaCl; 0.82 MgSO4; 0.33 Ca (NO3)2; 0.41 CaCl2; 2.4 NaHCO3; 10 HEPES, pH 7.4; 200 mosmol). After 16-24 hours, oocytes were injected with about 50 nl of mRNA or water and incubated in Barth's solution with gentamicin at about 18° C. for another three days after which uptake of ^14 C-urea was measured.
(§2) Unlabelled urea was deionized by passing it through an ion exchange column (AG501-X8 (D), 20-50 Mesh, Bio Rad) immediately before use. The uptake solution consisted of 2 microcuries ^14 C-urea; 1 mM urea; 200 mM mannitol; […]; 1 mM MgCl2; 1 mM CaCl2; 10 mM HEPES; and 5 mM TRIS, unless otherwise specified. In all uptake experiments oocytes were pre-incubated in uptake solution minus urea for one hour. After completion of the uptake, oocytes were washed with ice-cold wash solution (uptake solution without the labelled urea), dissolved in 10% SDS and used for scintillation counting.
Urea transport in the mammalian kidney is generally considered to be passive, although there is some evidence for active ion coupled transport. In studies addressing ion dependencies, urea uptake was measured in oocytes injected with urea transporter cRNA, as described above in Example 1. In the incubation solution, however, mannitol was replaced by NaCl (100 mM), choline chloride (100 mM) or sodium acetate (100 mM).
To study the uptake inhibition by phloretin, phloretin (Sigma) was dissolved in ethanol at 0.5M and added to the uptake solution to give the desired final concentration of 0.35 mM and 0.70 mM. The concentration of ethanol was no more than 0.1%. Ethanol at the same concentration is added to uptake solution without phloretin. Following 15 min pre-incubation in phloretin, ^14 C-urea was added and urea flux was then measured during 90 seconds.
For inhibition studies using urea analogues, all analogues were deionized as described in Example 1 immediately before use. […] Chou and Knepper, 257 Am. J. Physiol. F359-365 (1989).
It is possible that facilitation of urea transport by vasopressin is the result of direct phosphorylation of the transporter or of recruitment of functional transporters from intracellular vesicle pools.

[2] = system: urea transport in UT1 cRNA-injected oocytes; assay: 14C-urea uptake into Xenopus oocytes injected with UT1 cRNA; format: cell-based, Xenopus laevis
Protocol: as §1, §2

[3] = system: urea transport induced by rabbit kidney medulla poly(A)+ RNA; assay: 14C-urea uptake into Xenopus oocytes injected with poly(A)+ RNA from rabbit kidney medulla; format: cell-based; settings: phloretin 0.25 mM, 14C-urea 50 mM
Protocol: Messenger RNA, fractionated as above, was collected in 0.6 ml fractions. In preliminary experiments, uptake of ^14 C-labelled urea (50 mM) was measured three days after injection at 5, 30 and 60 minute intervals. […] Phloretin at 0.25 mM inhibited the 30 minute uptake of urea by approximately 50%.

[4] = molecular target: T1, urea transporter polypeptide; assay: Two-microelectrode voltage clamp on urea transporter cRNA-injected oocytes; format: cell-based, rabbit; settings: urea 1 and 100 mM; holding potential -60 mV
Protocol: Electrophysiological studies are in agreement with this finding. Electrophysiological measurements were made on oocytes 3-4 days after injection with urea transporter cRNA-injected oocytes using conventional two-microelectrode voltage clamp methods (Axoclamp-2A, Axon Instruments). Membrane current was measured in a standard bath of 96 mM NaCl; 2 mM KCl; 1.8 mM CaCl2; 1.0 mM MgCl2; and 5 mM HEPES, pH 7.4, at a holding potential of -60 mV.

[5] = system: water-injected control oocytes; settings: not told, 1000 µM
Protocol: as §1, §2

[6] = read-out: inhibition of urea uptake

Q: `CN(C)C(N)=O` [1,1-dimethylurea] was tested. Which “inhibition of urea transport by urea analogues” value (from here on “inhibition … by urea analogues”) ([1]; 14C-urea 1 mM) did it give?
A: no significant effect

Q: For `CNC(=O)NC` [1,3 dimethylurea, 1,3-dimethylurea], which “inhibition … by urea analogues” value ([1]; 14C-urea 1 mM) is on record?
A: 65%

Q: Which “effect of cAMP analogues on urea transporter-facilitated urea transport” value (“effect of cAMP analogues” for short) [1] does the source give for `Nc1ncnc2c1nc(Br)n2[C@@H]1O[C@@H]2COP(=O)(O)O[C@H]2[C@H]1O` [8-bromo-cAMP] here?
A: no effect

Q: `CNC(N)=O` [N-methylurea] was tested. Which “inhibition … by urea analogues” value ([1]; 14C-urea 1 mM) did it give?
A: 38%

Q: With `[Cl-].[Na+]` [NaCl] as the molecule, how does the “effect on urea uptake of replacing mannitol in the incubation solution” value (shortened to “effect on urea uptake”) [1] read?
A: did not alter urea uptake

Q: `Nc1ncnc2c1ncn2C1OC2COP(O)(=S)OC2C1O` (stereo not shown) [Sp-cAMPS] was tested. Which “effect of cAMP analogues” value [1] did it give?
A: no effect

Q: For `NC(N)=S` [Thiourea, thiourea], which “inhibition … by urea analogues” value ([1]; 14C-urea 1 mM) is on record?
A: 38%

Q: With `CC(N)=O` [acetamide] as the molecule, how does the “inhibition … by urea analogues” value ([1]; 14C-urea 1 mM) read?
A: no significant effect

Q: `C[N+](C)(C)CCO.[Cl-]` [choline chloride] was tested. Which “effect on urea uptake” value [1] did it give?
A: no effect

Q: How did the “effect of cAMP analogues” value [1] turn out when `CCCC(=O)Nc1ncnc2c1ncn2[C@@H]1O[C@@H]2COP(=O)(O)O[C@H]2[C@H]1OC(=O)CCC` [dibutyryl cyclic-AMP] was run?
A: no effect

Q: With `O=C(CCc1ccc(O)cc1)c1c(O)cc(O)cc1O` [phloretin] as the molecule, how does the “phloretin sensitivity of UT1-induced urea transport” value [2] read?
A: not phloretin-sensitive

Q: And the inhibition at 350 µM [1, 6]?
A: 48%

Q: And the inhibition at 700 µM [1, 6]?
A: 78%

Q: What about the inhibition at 350 µM ([1]; read-out: inhibition of urea uptake (phloretin-sensitivity of clone pool)) of the same molecule?
A: ~50%

Q: And the “inhibition of the 30 minute uptake of urea” value [3]?
A: approximately 50%

Q: How did the “effect on urea uptake” value [1] turn out when `CC(=O)O` [sodium acetate] was run?
A: no effect

Q: Which “membrane current evoked by bath applied urea” value [4] does the source give for `NC(N)=O` [urea] here?
A: did not evoke a significant current

Q: And the “maximum uptake of 14C-urea” value ([1]; 14C-urea 1 mM, between 10 and 30 minutes)?
A: approximately 250 pmoles/oocyte

Q: What about the “saturation of urea transporter polypeptide-mediated urea transport” value ([1]; concentration range between 1 and 200 mM urea) of the same molecule?
A: no saturation

Q: What about the “urea permeability of urea transporter-injected oocytes” value ([1]; not told, 1000 µM) of the same molecule?
A: 45 ×10⁻⁶ cm/s

Q: What about the “permeability of water-injected control oocytes for urea” value [5] of the same molecule?
A: 1.9 ×10⁻⁶ cm/s

B1: urea transporter: 397-amino acid residue membrane glycoprotein from rabbit kidney medulla (SEQ ID NO.: 2), expressed from UT2 cRNA (protein)
chain: MEDSSEIKVETASSRTSWIQSSVAAGGKRISRALGYITGEMKECAEGLKDKSPVFQFLDWVLRGTSQVMFVNNPLSGILIVIGLFVQNPWWAIAGCLGTVMSTLTALILSQDRSAIASGLHGYNGVLVGLLIAVFSDKGDYYWWLLLPVIVMSMSCPILSSALGTIFSKWDLPVFTLPFNIAVTLYLAATGHYNLFFPTTLLQPVSSVPNITWSEIQVPLLLRAIPVGIGQVYGCDNPWTGGIFLIALFISSPLICLHAAIGSTMGMLAALTIATPFDSIYFGLCGFNSTLACIAVGGMFYVITWQTHLLAVACALFAAYVGAALTNVLSVFGLPTCTWPFCISALIFLLLTTNNPAIYKLPLSKVTYPEANRTYYLTQERNRRSSTITKYQAYDVS
modifications: glycosylated
Q: Which “increase of the permeability of oocytes to urea” value ([1]; versus water-injected control oocytes) does the source give for B1 here?
A: 23 fold
